Values quoted from earlier work in article PMC2615486 (Chemistry & biology, 2008).

Key:
avidin = settings: ref Green, N.M. 1970
[1] = ref Hyre, D.E., Le Trong, I., et al. 2006

Molecule | dissociation constant for avidin, weaker than that of biotin (avidin) | association rate for biotin [1]
C[C@@H]1NC(=O)N[C@@H]1CCCCCC(=O)O [desthiobiotin] | 10^2–10^4 fold | 
streptavidin: wild-type streptavidin as described in the literature |  | ~ 1 × 10^8 M^−1s^−1
